From patent US20090124651A1, “CATECHOLAMINE DERIVATIVES AND PRODRUGS THEREOF” (H. LUNDBECK A/S, priority 2007, published 2009)

Tests used:
motility deficits = test: Superiority model: mouse model of severe dopamine depletion; format: in vivo
Description: Both Apomorphine and L-DOPA stimulate D1 and D2-like dopamine receptors.

Parkinson's disease = conditions: PD patients, intravenous (IV); cited from earlier work
[1] = man, oral dosing; cited from earlier work

Row | SMILES | reversal of motility deficits / restoration of locomotion (motility deficits) | antiparkinson efficacy (Parkinson's disease) | oral bioavailability [1] [%]
1 | N[C@@H](Cc1ccc(O)c(O)c1)C(=O)O [L-DOPA, (levo)-3,4-dihydroxy phenylalanine] | able to reverse motility deficits | – | –
2 | CN1CCc2cccc3c2[C@H]1Cc1ccc(O)c(O)c1-3 [Apomorphine] | able to reverse motility deficits | – | –
3 | CCCc1cc2c(s1)CN[C@@H]1CCc3cc(OC(C)=O)c(OC(C)=O)cc3[C@@H]21 [Adrogolide] | – | comparable to that of L-DOPA | ~4
